Test [1] concerns the target p38α activated, mitogen-activated protein kinase-activated protein kinase 2 (MAPKAP-K2 or MK2) enzyme (Homo sapiens (Human), UniProt P49137). Briefly: MK2 Omnia continuous-read kinase assay for compound potency. Format: biochemical. Conditions: [MK-2]=0.4 nM, [ATP]=10 μM, [ST3-Sox]=10 μM; read-out: MK2 IC50. An excerpt: Mitogen-Activated Protein Kinase-Activated Protein Kinase 2 Omnia® Assay for Compound Potency Assessment:
The protocol below describes a continuous-read kinase assay optimized to measure potency of compounds against p38α activated, mitogen-activated protein kinase-activated protein kinase 2 (MAPKAP-K2 or MK2) enzyme. Further details of this assay are described by Life Technologies, Carlsbad, Calif. on their website at the following URL: http://tools.lifetechnologies.com/content/sfs/manuals/omnia_kinase_assay_man.pdf.
[Reagent] used: • [MK-2]=0.4 nM, • [ATP]=10 μM and • [ST3-Sox]=10 μM (ATP^appKM=10 μM)
Kinase reactions were started with the addition of 45 μL of the ATP-peptide substrate S/T3-Sox mix and monitored every 71 seconds for 120 minutes at λex360/λem485 in a Synergy H4 plate reader from BioTek (Winooski, Vt.) at room temperature.
Background signals from the no enzyme control wells were subtracted from all progress curves. The initial linear portions of the net progress curves were fit according to a linear equation to yield the slope and percentage of inhibition (% inhibition) at each compound concentration. The net progress curves obtained during the first two hours of reactions were also fit according to an ascending single-exponential equation (Eq. 1) to yield kobs values at each compound concentration. Plots of % Inhibition versus inhibitor concentrations were fit according to a dose-response equation (Eq. 2) to generate IC50 and Hill slope values while plots of kobs versus inhibitor concentration were fit according to Equation 3 (Eq. 3) to generate apparent kinact/KI values using the GraphPad PRISM software (Version 6.00; GraphPad San Diego, Calif.).
[formula] where F is the fluorescence intensity from the plate reader, V0 is a constant reflecting the relationship between the instrument readout and product concentration, t is time, e is Euler's number, and kobs is the observed inactivation rate constant.
[formula] where % Inhibition is percentage of inhibition, IC50 is half maximal inhibitory concentration, [I] is the inhibitor concentration, and n is the Hill slope.

For test [2], the target named is T1, MK2 (Homo sapiens (Human), UniProt P49137). Briefly: MK2 cellular assay, total and phospho-Hsp27 (Serine 78) by MSD ELISA (Thp1). Particulars: Thp-1 cells, 1 hour compound, 50 ng/mL LPS 45 minutes, p-HSP27 (Ser78)/total HSP27; read-out: pHSP27 signaling EC50. It counts as cell-based. As for the experimental part:
MK2 Cellular Assay—Detection of Total and Phospho-Hsp27 (Serine 78) by MSD ELISA (Thp1)
Compounds of the invention were assayed in Thp-1 human acute monocytic leukemia cells to measure inhibition of MK2 activity. Thp-1 cells were grown in culture medium containing RPMI/10% FBS (fetal bovine serum)/0.05 mM 2-mercaptoethanol. 72 hours prior to the assay, 8×10^4 cells per well were plated in a 96 well flat bottom plate along with 10 ng/mL phorbol 12-myristate 13-acetate (PMA). Cells were cultured in an incubator at 37° C. until needed for the assay. Cell plate media was replaced with culture media just prior to assay while compound dilutions were being made.
Stock solutions of test compound, 1 mM in DMSO, were prepared. 0.9 μl of test compound was added to 300 μl cell media for a starting concentration of 3000 nM. […] Cell plate media was discarded, followed by addition of 100 μl of the compound containing media. The resulting preparation was incubated at 37° C. for 1 hour.
Test compound-containing cell assay media was removed and the cells were washed once with cell assay media. Cell assay media containing 50 ng/mL LPS (lipopolysaccharide) was added to the each well and incubated for 45 minutes. Following LPS incubation, the cells were washed once with PBS (phosphate-buffered saline) and lysed with 60 μl Cell Extraction Buffer (Invitrogen #FNN0011) plus protease and phosphatase inhibitors. The plate was then stored at −80° C. until further analysis.
The MULTI-SPOT Phospho(Ser78)/Total HSP27 ELISA Assay kit was purchased from Meso Scale […] (MSD; catalog #K15128D). […] The pre-coated MSD plate was blocked with 150 μL/well of 3% BSA in MSD wash buffer. The preparation was placed on a shaker at room temperature for an hour. While the ELISA plate was blocked, the cell assay plate stored at −80° C. was placed on a shaker at 4° C. for 1 hour to thaw.
The blocked MSD plate was washed on a plate washer, tapping out the last bit of wash solution, followed by addition of 30 μl of the lysate from the cell assay plate. The preparation was covered and incubated for 1 hour at room temperature. The lysate was removed, the plate was washed 3 times on a plate washer and the last bit of wash buffer was tapped out and replaced with 25 μl/well detection antibody (anti-total HSP27 conjugated with an electrochemiluminescent compound, MSD SULFO-TAG label, supplied in kit) made in 1% BSA/MSD wash buffer. The plate was incubated for 1 hour at room temperature on a shaker, followed by 3 washes. The last bit of wash buffer was tapped out. 150 μl/well 1×MSD read buffer was added (4× read buffer supplied with kit) and the plate was analyzed on the MSD SECTOR® Imager for analysis. The SECTOR® Imager measures intensity of emitted light to provide a quantitative measure of phosphorylated HSP27 (Ser78) and total HSP27 present in the sample. The relative percent phosphoprotein in a sample is calculated by dividing the Phospho-HSP27 signal intensity over the total HSP27 signal intensity measured in each well.

For test [3], the target named is T1, MK2.
Setting [4] is: percentage of modified protein after 60 minutes at room temperature, 10-fold excess of compound, MALDI (I-1 to I-50), magnetic bead MALDI (I-51 to I-129).

Results on 15 compounds are retold here after patent US9790235B2, “MK2 inhibitors and uses thereof” (Celgene CAR LLC, priority 2014, dated 2017).

The structures appear in SMILES notation. Where two headings read alike, the source gives them in different places.
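Throughout, for Mass Modification: covalent binding read from centroid mass shift of compound-treated versus untreated intact MK2, shift divided by compound molecular weight, giving fraction of total protein bound.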

T1 sequence (P49137 whole entry): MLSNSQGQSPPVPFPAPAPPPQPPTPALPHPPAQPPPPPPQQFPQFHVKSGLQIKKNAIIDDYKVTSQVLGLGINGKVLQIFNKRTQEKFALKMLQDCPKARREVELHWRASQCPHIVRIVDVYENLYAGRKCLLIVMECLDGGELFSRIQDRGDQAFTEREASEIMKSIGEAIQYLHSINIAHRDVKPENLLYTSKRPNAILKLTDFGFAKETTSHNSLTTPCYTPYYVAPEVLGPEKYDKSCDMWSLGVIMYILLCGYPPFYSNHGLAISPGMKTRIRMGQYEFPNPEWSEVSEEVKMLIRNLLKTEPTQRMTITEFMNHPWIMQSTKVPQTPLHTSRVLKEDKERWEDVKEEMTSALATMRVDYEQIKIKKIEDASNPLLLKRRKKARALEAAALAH
p38α activated, mitogen-activated protein kinase-activated protein kinase 2 (MAPKAP-K2 or MK2) enzyme, sequence (P49137 whole entry): as above

In the case of `C[C@@H]1CNc2c(sc3ccc4nc(Nc5nc(Cl)ncc5C(N)=O)ccc4c23)C(=O)N1` [I-9, (R)-2-chloro-4-((10-methyl-8-oxo-9,10,11,12-tetrahydro-8H-[1,4]diazepino[5′,6′:4,5]thieno[3,2-f]quinolin-3-yl)amino)pyrimidine-5-carboxamide], the half-inhibitory concentration (IC50) in test [1] was less than 100 nM. For the same compound, the EC50 in test [2] was less than 100 nM. For the same compound, the “Mass Modification” value in test [3] (setting [4]) is on record as “E (mass modification of ≧70%)”.
For the compound `C[C@@H]1CNc2c(sc3ccc4nc(Nc5nc(Cl)nc(N6CCN(C)CC6)n5)ccc4c23)C(=O)N1` [I-10, (R)-3-((4-chloro-6-(4-methylpiperazin-1-yl)-1,3,5-triazin-2-yl)amino)-10-methyl-9,10,11,12-tetrahydro-8H-[1,4]diazepino[5′,6′:4,5]thieno[3,2-f]quinolin-8-one], the 50% inhibitory concentration (IC50) in test [1] is less than 100 nM. Moreover, the EC50 in test [2] fell in the range of 101 to 500 nM. The “Mass Modification” value in test [3] (setting [4]) was “G (mass modification ≦30%)”.
With `C[C@@H]1CNc2c(sc3ccc4nc(Nc5nccc(Cl)n5)ccc4c23)C(=O)N1` [I-13, (R)-3-((4-chloropyrimidin-2-yl)amino)-10-methyl-9,10,11,12-tetrahydro-8H-[1,4]diazepino[5′,6′:4,5]thieno[3,2-f]quinolin-8-one], in test [2], the EC50 was more than 1000 nM. Further, in test [3], the “Mass Modification” value is reported as “G (key: E: mass modification of ≧70%; F: mass modification of 31-69%; G: mass modification ≦30%)”.
As for `C[C@@H]1CNc2c(sc3ccc4nc(Nc5ccnc(S(C)(=O)=O)n5)ccc4c23)C(=O)N1` [I-14, (R)-10-methyl-3-((2-(methylsulfonyl)pyrimidin-4-yl)amino)-9,10,11,12-tetrahydro-8H-[1,4]diazepino[5′,6′:4,5]thieno[3,2-f]quinolin-8-one], the IC50 in test [1] was less than 100 nM. In test [2], the EC50 is more than 1000 nM. Besides, in test [3] (setting [4]), the “Mass Modification” value is given as “G (mass modification ≦30%)”.
For the compound `C[C@@H]1CNc2c(sc3ccc4nc(Nc5cc(Cl)ncc5C(N)=O)ccc4c23)C(=O)N1` [I-15, (R)-6-chloro-4-((10-methyl-8-oxo-9,10,11,12-tetrahydro-8H-[1,4]diazepino[5′,6′:4,5]thieno[3,2-f]quinolin-3-yl)amino)nicotinamide], the half-maximal inhibitory concentration (IC50) in test [1] is less than 100 nM. Also, the EC50 in test [2] was more than 1000 nM. For the same compound, the “Mass Modification” value in test [3] (setting [4]) was “G (mass modification ≦30%)”.
In the case of `C[C@@H]1CNc2c(sc3ccc4nc(Nc5nc(Cl)ncc5C(=O)NC5COC5)ccc4c23)C(=O)N1` [I-20, (R)-2-chloro-4-((10-methyl-8-oxo-9,10,11,12-tetrahydro-8H-[1,4]diazepino[5′,6′:4,5]thieno[3,2-f]quinolin-3-yl)amino)-N-(oxetan-3-yl)pyrimidine-5-carboxamide], the EC50 in test [2] was more than 1000 nM. The “Mass Modification” value in test [3] (setting [4]) is “G (mass modification ≦30%)”.
In the case of `C[C@@H]1CNc2c(sc3ccc4nc(Nc5nc(Cl)ncc5C(=O)NC5CC5)ccc4c23)C(=O)N1` [I-21, (R)-2-chloro-N-cyclopropyl-4-((10-methyl-8-oxo-9,10,11,12-tetrahydro-8H-[1,4]diazepino[5′,6′:4,5]thieno[3,2-f]quinolin-3-yl)amino)pyrimidine-5-carboxamide], the EC50 in test [2] is more than 1000 nM. The “Mass Modification” value in test [3] (setting [4]) is given as “G (mass modification ≦30%)”.
As for `CN(C)C[C@@H]1CNc2c(sc3ccc4nc(Nc5cc(F)ncn5)ccc4c23)C(=O)N1` [I-31, (S)-10-((dimethylamino)methyl)-3-((6-fluoropyrimidin-4-yl)amino)-9,10,11,12-tetrahydro-8H-[1,4]diazepino[5′,6′:4,5]thieno[3,2-f]quinolin-8-one], in test [2], the EC50 is more than 1000 nM. Moreover, the “Mass Modification” value in test [3] (setting [4]) is on record as “F (mass modification of 31-69%)”.
On to `C[C@@H]1CNc2c(sc3ccc4nc(Nc5cc(F)nc(OCCN6CCN(C)CC6)n5)ccc4c23)C(=O)N1` [I-48, (R)-3-((6-fluoro-2-(2-(4-methylpiperazin-1-yl)ethoxy)pyrimidin-4-yl)amino)-10-methyl-9,10,11,12-tetrahydro-8H-[1,4]diazepino[5′,6′:4,5]thieno[3,2-f]quinolin-8-one], for which the IC50 in test [1] was less than 100 nM. Also, the EC50 in test [2] was more than 1000 nM.
As to `C[C@@H]1CNc2c(sc3ccc4nc(Oc5nc(Cl)ncc5CN5CCC[C@H]5C)ccc4c23)C(=O)N1` [I-99, (R)-3-((2-chloro-5-(((R)-2-methylpyrrolidin-1-yl)methyl)pyrimidin-4-yl)oxy)-10-methyl-9,10,11,12-tetrahydro-8H-[1,4]diazepino[5′,6′:4,5]thieno[3,2-f]quinolin-8-one], the IC50 in test [1] is less than 100 nM. Moreover, the EC50 in test [2] was less than 100 nM.
Turning to `C[C@@H]1CNc2c(sc3ccc4nc(Oc5nc(Cl)ncc5CN5CCC[C@@H]5C)ccc4c23)C(=O)N1` [I-101], the IC50 in test [1] is less than 100 nM. Moreover, the EC50 in test [2] is less than 100 nM.
Consider `C[C@@H]1CNc2c(sc3ccc4nc(Oc5ncncc5CN(C)C(C)(C)C)ccc4c23)C(=O)N1` [I-104, (R)-3-((5-((tert-butyl(methyl)amino)methyl)pyrimidin-4-yl)oxy)-10-methyl-9,10,11,12-tetrahydro-8H-[1,4]diazepino[5′,6′:4,5]thieno[3,2-f]quinolin-8-one], for which, in test [1], the IC50 was in the range of 501 to 999 nM. In test [2], the concentration giving a half-maximal response (EC50) is more than 1000 nM.
For `CO[C@H]1CCCN(Cc2cnc(Cl)nc2Oc2ccc3c(ccc4sc5c(c43)NC[C@@H](C)NC5=O)n2)C1` [I-106, (R)-3-((2-chloro-5-(((S)-3-methoxypiperidin-1-yl)methyl)pyrimidin-4-yl)oxy)-10-methyl-9,10,11,12-tetrahydro-8H-[1,4]diazepino[5′,6′:4,5]thieno[3,2-f]quinolin-8-one], the IC50 in test [1] fell in the range of 101 to 500 nM. In addition, the 50% effective concentration (EC50) in test [2] is less than 100 nM.
For the compound `C[C@@H]1CNc2c(sc3ccc4nc(Oc5cc(CNC(C)(C)C)nc(Cl)n5)ccc4c23)C(=O)N1` [I-117, (R)-3-((6-((tert-butylamino)methyl)-2-chloropyrimidin-4-yl)oxy)-10-methyl-9,10,11,12-tetrahydro-8H-[1,4]diazepino[5′,6′:4,5]thieno[3,2-f]quinolin-8-one], in test [2], the EC50 is less than 100 nM.
For `C[C@@H]1CNc2c(sc3ccc4nc(Oc5nc(Cl)ncc5-c5cccnc5)ccc4c23)C(=O)N1` [I-123, (R)-3-((2-chloro-5-(pyridin-3-yl)pyrimidin-4-yl)oxy)-10-methyl-9,10,11,12-tetrahydro-8H-[1,4]diazepino[5′,6′:4,5]thieno[3,2-f]quinolin-8-one], the IC50 in test [1] is less than 100 nM. For the same compound, in test [2], the EC50 is less than 100 nM.
